Laboratory results as given in patent US12247013B2, “Indane derivatives for use in the treatment of bacterial infection” (priority 2018, dated 2025).

The compounds below were run on Pseudomonas aeruginosa (PAO1) (assay: Mouse model of Pseudomonas aeruginosa lung infection). Conditions: mice infected with wild-type PAO1, intravenous 10 and 30 mg/kg at 1 h and 2 h post infection, 24 hours post infection (FIG. 2).
Assay type: in vivo
Procedure: Mice were dosed by intranasal inoculation of PA (PAO1), then sacrified after 24 hours. The extent of infection in the lung was quantified by bacterial load (CFU determination, colony forming units) and the levels of proinflammatory IL-1β. Statistical analysis on both readouts were performed by ANOVA with a Dunnett post-test.
Compounds were administered intravenously in a two-dose regimen (1 hour and 2 hours post infection) at two different doses (10 and 30 mg/kg).

Structure (SMILES)	production and activation of IL-1β in the lung
COc1cc2sc(CNC(=O)C3(CC(=O)[O-])Cc4cc(F)c(F)cc4C3)nc2cc1OCCC[N+](C)(CCO)CCO [Example 23, 2-[2-[[5-[3-[bis(2-hydroxyethyl)-methyl-ammonio]propoxy]-6-methoxy-1,3-benzothiazol-2-yl]methylcarbamoyl]-5,6-difluoro-indan-2-yl]acetate]	inhibited the production and activation of IL-1β in mice infected by wild-type PA (PA01) at a similar level than the lasB deleted mutant

Same assay, conditions: mice infected with wild-type PAO1, intravenous 10 and 30 mg/kg at 1 h and 2 h post infection, 24 hours post infection (FIG. 3)

Structure (SMILES)	extent of infection in the lung (CFU levels)
COc1cc2sc(CNC(=O)C3(CC(=O)[O-])Cc4cc(F)c(F)cc4C3)nc2cc1OCCC[N+](C)(CCO)CCO [Example 23, 2-[2-[[5-[3-[bis(2-hydroxyethyl)-methyl-ammonio]propoxy]-6-methoxy-1,3-benzothiazol-2-yl]methylcarbamoyl]-5,6-difluoro-indan-2-yl]acetate]	reduced the extent of infection in the lung to the level of the LasB deleted mutant

These compounds were tested against purified LasB protein from P. aeruginosa (Pseudomonas aeruginosa (strain ATCC 15692 / DSM 22644 / CIP 104116 / JCM 14847 / LMG 12228 / 1C / PRS 101 / PAO1), UniProt P14756) (assay: Fluorometric assay to determine Ki (Abz-Ala-Gly-Leu-Ala-p-Nitro-Benzyl-Amide substrate)). Conditions: 250 μM substrate, Ki calculated from IC50.
Assay type: biochemical
Procedure: Experiments were therefore conducted (1) to measure the potency of inhibition of compounds of the invention against purified Pseudomonas aeruginosa LasB enzyme and also experiments were conducted (2) to measure the ability of compounds of the invention to inhibit LasB-catalysed elastin degradation. The first assay uses a commercial fluorescent synthetic peptide and purified LasB enzyme. The LasB hydrolysis kinetics are measured allowing the determination of the IC50 and Ki of the inhibitors; the second is a more physiological assay using dialysed Pseudomonas aeruginosa supernatant as source of enzyme, plus its natural substrate Elastin. It is an “end point assay” that determines the percentage of LasB inhibition by each compound for one particular time point and inhibitor concentration. Technical details are described below:
Fluorometric Assay to Determine Ki
This assay uses commercially available substrate (Abz-Ala-Gly-Leu-Ala-p-Nitro-Benzyl-Amide (Ex: 340 nm, Em: 415 nm) from Peptide International) and purified LasB protein from P. aeruginosa (provided by Merck or Charles River Laboratories). It is performed to determine LasB elastase activity and assess compound inhibition in 96-well plate format. All compounds of Formula (I) were assessed using the method described below.
Method: 10 to 140 ng/ml purified LasB is incubated with 250 μM Abz-Ala-Gly-Leu-Ala-p-Nitro-Benzyl-Amide in 50 mM Tris-HCl pH 7.4, 2.5 mM CaCl2), 0.01% of Triton X100 at 37° C. LasB activity (corresponding to fluorescence emission induced by substrate hydrolysis) is measured over 30 min at 37° C. with a fluorescence plate reader such as the Perkin Elmer Envision or similar. Different range of inhibitor concentrations are routinely assessed depending of inhibitor potency from 0.0016 to 200 μM (2-fold dilutions series) in order to determine IC50.
The equation used to calculate the Ki from IC50 is: Ki=IC50/(1+([S]/Km)) where [S]=250 μM and Km=214 μM.

Sequence of purified LasB protein from P. aeruginosa (P14756 198-498): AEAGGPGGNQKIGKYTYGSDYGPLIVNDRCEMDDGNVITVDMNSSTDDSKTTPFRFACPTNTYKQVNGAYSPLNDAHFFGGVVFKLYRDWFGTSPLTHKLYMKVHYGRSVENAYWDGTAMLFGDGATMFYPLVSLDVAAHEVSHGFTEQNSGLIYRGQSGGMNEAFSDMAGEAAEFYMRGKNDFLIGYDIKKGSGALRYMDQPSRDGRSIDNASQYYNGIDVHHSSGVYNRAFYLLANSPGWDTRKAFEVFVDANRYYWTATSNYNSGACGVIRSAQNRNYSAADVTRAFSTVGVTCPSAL

Structure (SMILES)	Ki [µM]
COc1cc2sc(CNC(=O)C3(CC(=O)O)Cc4ccccc4C3)nc2cc1OCCN1CCOCC1 [Example 9, 2-[2-[[6-methoxy-5-(2-morpholinoethoxy)-1,3-benzothiazol-2-yl]methylcarbamoyl]indan-2-yl]acetic Acid]	< 0.05
COc1cc2sc(CNC(=O)C3(CC(=O)O)Cc4cc(F)c(F)cc4C3)nc2cc1OCCN1CCOCC1 [Example 10, 2-[5,6-difluoro-2-[[6-methoxy-5-(2-morpholinoethoxy)-1,3-benzothiazol-2-yl]methylcarbamoyl]indan-2-yl]acetic Acid]	< 0.05
COc1cc2sc(CNC(=O)C3(CC(=O)O)Cc4cc(F)c(F)cc4C3)nc2cc1OCC1CCN(C)CC1 [Example 11, 2-[5,6-difluoro-2-[[6-methoxy-5-[(1-methyl-4-piperidyl)methoxy]-1,3-benzothiazol-2-yl]methylcarbamoyl]indan-2-yl]acetic Acid]	< 0.05
COc1cc2sc(CNC(=O)C3(CC(=O)[O-])Cc4ccccc4C3)nc2cc1OCCC[N+]1(C)CCOCC1 [Example 16, 2-[2-[[6-methoxy-5-[3-(4-methylmorpholin-4-ium-4-yl)propoxy]-1,3-benzothiazol-2-yl]methylcarbamoyl]indan-2-yl]acetate]	< 0.05
CC[N+](C)(CC)CCCOc1cc2nc(CNC(=O)C3(CC(=O)[O-])Cc4ccccc4C3)sc2cc1OC [Example 18, 2-[2-[[5-[3-[diethyl(methyl)ammonio]propoxy]-6-methoxy-1,3-benzothiazol-2-yl]methylcarbamoyl]indan-2-yl]acetate]	< 0.05
COc1cc2sc(CNC(=O)C3(CC(=O)[O-])Cc4cc(F)c(F)cc4C3)nc2cc1OCCC[N+]1(C)CCCC1 [Example 19, 2-[5,6-difluoro-2-[[6-methoxy-5-[3-(1-methylpyrrolidin-1-ium-1-yl)propoxy]-1,3-benzothiazol-2-yl]methylcarbamoyl]indan-2-yl]acetate]	< 0.05
COc1cc2sc(CNC(=O)C3(CC(=O)[O-])Cc4ccccc4C3)nc2cc1OCCC[N+](C)(C)CCO [Example 20, 2-[2-[[5-[3-[2-hydroxyethyl(dimethyl)ammonio]propoxy]-6-methoxy-1,3-benzothiazol-2-yl]methylcarbamoyl]indan-2-yl]acetate]	< 0.05
COc1cc2sc(CNC(=O)C3(CC(=O)[O-])Cc4cc(F)c(F)cc4C3)nc2cc1OCCC[N+](C)(C)CCO [Example 21, 2-[5,6-difluoro-2-[[5-[3-[2-hydroxyethyl(dimethyl)ammonio]propoxy]-6-methoxy-1,3-benzothiazol-2-yl]methylcarbamoyl]indan-2-yl]acetate]	< 0.05
COc1cc2sc(CNC(=O)C3(CC(=O)[O-])Cc4ccccc4C3)nc2cc1OCCC[N+](C)(CCO)CCO [Example 22, 2-[2-[[5-[3-[bis(2-hydroxyethyl)-methyl-ammonio]propoxy]-6-methoxy-1,3-benzothiazol-2-yl]methylcarbamoyl]indan-2-yl]acetate]	< 0.05
COc1cc2sc(CNC(=O)C3(CC(=O)[O-])Cc4cc(F)c(F)cc4C3)nc2cc1OCCC[N+](C)(CCO)CCO [Example 23, 2-[2-[[5-[3-[bis(2-hydroxyethyl)-methyl-ammonio]propoxy]-6-methoxy-1,3-benzothiazol-2-yl]methylcarbamoyl]-5,6-difluoro-indan-2-yl]acetate]	< 0.05
COc1cc2sc(CNC(=O)C3(CC(=O)O)Cc4ccccc4C3)nc2cc1C(=O)N1CCN(C)CC1 [Example 33, 2-[2-[[6-methoxy-5-(4-methylpiperazine-1-carbonyl)-1,3-benzothiazol-2-yl]methylcarbamoyl]indan-2-yl]acetic Acid]	< 0.05
COc1cc2sc(CNC(=O)C3(CC(=O)O)Cc4ccccc4C3)nc2cc1C(=O)N1CC(N(C)C)C1 [Example 36, 2-[2-[[5-[3-(dimethylamino)azetidine-1-carbonyl]-6-methoxy-1,3-benzothiazol-2-yl]methylcarbamoyl]indan-2-yl]acetic Acid]	< 0.05
COc1cc2sc(CNC(=O)C3(CC(=O)O)Cc4cc(F)c(F)cc4C3)nc2cc1C(=O)N1CC(N(C)C)C1 [Example 37, 2-[2-[[5-[3-(dimethylamino)azetidine-1-carbonyl]-6-methoxy-1,3-benzothiazol-2-yl]methylcarbamoyl]-5,6-difluoro-indan-2-yl]acetic Acid]	< 0.05
COc1cc2sc(CNC(=O)C3(CC(=O)[O-])Cc4cc(F)c(F)cc4C3)nc2cc1OCC1CC[N+](C)(C)CC1 [Example 44, 2-[2-[[5-[(1,1-dimethylpiperidin-1-ium-4-yl)methoxy]-6-methoxy-1,3-benzothiazol-2-yl]methylcarbamoyl]-5,6-difluoro-indan-2-yl]acetate]	< 0.05
